This is an account of results in patent publication US8377974B2 (Millennium Pharmaceuticals, Inc., priority 2004, dated 2013).

SMILES strings stand for the structures.

T1 sequence (P00742 235-488 limits assumed): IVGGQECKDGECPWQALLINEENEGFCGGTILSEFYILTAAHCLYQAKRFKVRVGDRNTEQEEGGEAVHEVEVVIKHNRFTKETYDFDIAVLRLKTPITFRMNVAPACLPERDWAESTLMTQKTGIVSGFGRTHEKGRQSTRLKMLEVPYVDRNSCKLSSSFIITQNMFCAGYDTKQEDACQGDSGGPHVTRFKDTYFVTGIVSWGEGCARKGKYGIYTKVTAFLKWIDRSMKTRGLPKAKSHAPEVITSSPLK
T1 sequence (P00742 41-179 partner limits assumed): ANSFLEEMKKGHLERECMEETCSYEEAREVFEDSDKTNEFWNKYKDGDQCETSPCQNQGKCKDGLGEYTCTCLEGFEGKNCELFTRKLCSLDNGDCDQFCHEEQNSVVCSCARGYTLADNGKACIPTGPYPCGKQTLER

This experiment has as its target T1, human plasma protein factor Xa (Homo sapiens, UniProt P00742).
T1 construct: measure proteolytic activity of the enzyme (factor Xa); purchased Haematologic Technologies (Essex Junction, Vt.); host or cells: human plasma
Description: Factor Xa IC50 determination: cleavage of paranitroanilide substrate S-2765 in 96-well plates. The experiment is classed as biochemical. Conditions: fXa 1 nM, S-2765 100 μM, Tris buffered saline pH 7.4, room temperature. The procedure, abridged:
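Initial rates of S-2765 (100 μM final) cleavage, read at 405 nm for 2 min, fitted with a four-parameter equation to give IC50. Enzyme: 1 nM human plasma fXa, 5 min room-temperature preincubation with inhibitor (0.01 nM–10 μM) in 20 mM Tris, 150 mM NaCl, 5 mM CaCl2, 0.1% BSA, 5% DMSO, pH 7.4; duplicates.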
Broadly, the IC50 is the concentration needed to halve the response being measured. `O=C(NCc1cn(-c2ccc(I)cc2F)nn1)c1ccc(Cl)s1` [Example 304, 5-Chloro-N-((1-(2-fluoro-4-iodophenyl)-1H-1,2,3-triazol-4-yl)methyl)thiophene-2-carboxamide]: the IC50 is at least 500 nM.

Regarding `O=C(NCc1cn(-c2ccc(-n3ccccc3=O)cc2F)nn1)c1ccc(Cl)s1` [Example 305, 5-Chloro-N-((1-(2-fluoro-4-(2-oxopyridin-1(2H)-yl)phenyl)-1H-1,2,3-triazol-4-yl)methyl)thiophene-2-carboxamide], the IC50 was at most 100 nM.

The compound `O=C(NCc1cn(-c2ccc(N3CCOCC3=O)cc2F)nn1)c1ccc(Cl)s1` [Example 306, 5-Chloro-N-((1-(2-fluoro-4-(3-oxomorpholino)phenyl)-1H-1,2,3-triazol-4-yl)methyl)thiophene-2-carboxamide] displayed an IC50 of at most 100 nM.

As to `O=C(NCc1cn(-c2ccc(-n3ccccc3=O)cc2O)nn1)c1ccc(Cl)s1` [Example 307, 5-Chloro-N-((1-(2-hydroxy-4-(2-oxopyridin-1(2H)-yl)phenyl)-1H-1,2,3-triazol-4-yl)methyl)thiophene-2-carboxamide], the IC50 is at most 100 nM.

`CN1CCN(c2cc(-n3ccccc3=O)ccc2-n2cc(CNC(=O)c3ccc(Cl)s3)nn2)CC1` [Example 308, 5-Chloro-N-((1-(2-(4-methylpiperazin-1-yl)-4-(2-oxopyridin-1(2H)-yl)phenyl)-1H-1,2,3-triazol-4-yl)methyl)thiophene-2-carboxamide] returned an IC50 of at most 100 nM.

Regarding `O=C(NCc1cn(-c2ccc(-n3ccccc3=O)cn2)nn1)c1ccc(Cl)s1` [Example 309, 5-Chloro-N-((1-(5-(2-oxopyridin-1(2H)-yl)pyridin-2-yl)-1H-1,2,3-triazol-4-yl)methyl)thiophene-2-carboxamide], the IC50 was at most 100 nM.

Regarding `O=C(NCc1cc(-c2ccc(-n3ccccc3=O)nc2)no1)c1ccc(Cl)s1` [Example 310, 5-Chloro-N-((3-(6-(2-oxopyridin-1(2H)-yl)pyridin-3-yl)isoxazol-5-yl)methyl)thiophene-2-carboxamide], the half-maximal inhibitory concentration (IC50) is at most 100 nM.

Consider `O=C(NCc1nc(-c2ccc(-n3ccccc3=O)cc2)no1)c1ccc(Cl)s1` [Example 311, 5-Chloro-N-((3-(4-(2-oxopyridin-1(2H)-yl)phenyl)-1,2,4-oxadiazol-5-yl)methyl)thiophene-2-carboxamide], for which the IC50 is at most 100 nM.

As to `CN1CCN=C1c1ccc(-n2cc(CNC(=O)c3ccc(Cl)s3)nn2)cc1` [Example 312, 5-Chloro-N-((1-(4-(1-methyl-4,5-dihydro-1H-imidazol-2-yl)phenyl)-1H-1,2,3-triazol-4-yl)methyl)thiophene-2-carboxamide], the IC50 was at most 100 nM.

Compound `CN(C)C(=N)c1ccc(-n2cc(CNC(=O)c3ccc(Cl)s3)nn2)cc1` [Example 313, N-((1-(4-(N,N-Dimethylcarbamimidoyl)phenyl)-1H-1,2,3-triazol-4-yl)methyl)-5-chlorothiophene-2-carboxamide] came in with an IC50 of at most 100 nM.

Turning to `CCN(C)C(=N)c1ccc(-n2cc(CNC(=O)c3ccc(Cl)s3)nn2)cc1` [Example 314, N-((1-(4-(N-Ethyl-N-methylcarbamimidoyl)phenyl)-1H-1,2,3-triazol-4-yl)methyl)-5-chlorothiophene-2-carboxamide], the IC50 is at most 100 nM.

`CCCN(C)C(=N)c1ccc(-n2cc(CNC(=O)c3ccc(Cl)s3)nn2)cc1` [Example 315, N-((1-(4-(N-Methyl-N-propylcarbamimidoyl)phenyl)-1H-1,2,3-triazol-4-yl)methyl)-5-chlorothiophene-2-carboxamide] registered an IC50 of at most 100 nM.

Consider `COCCN(C)C(=N)c1ccc(-n2cc(CNC(=O)c3ccc(Cl)s3)nn2)cc1` [Example 316, N-((1-(4-(N-(2-Methoxyethyl)-N-methylcarbamimidoyl)phenyl)-1H-1,2,3-triazol-4-yl)methyl)-5-chlorothiophene-2-carboxamide], for which the IC50 is at most 100 nM.

Take `N=C(c1ccc(-n2cc(CNC(=O)c3ccc(Cl)s3)nn2)cc1)N1CCC1` [Example 317, N-((1-(4-(Azetidin-1-yl(imino)methyl)phenyl)-1H-1,2,3-triazol-4-yl)methyl)-5-chlorothiophene-2-carboxamide]: the IC50 is at most 100 nM.

Take `N=C(c1ccc(-n2cc(CNC(=O)c3ccc(Cl)s3)nn2)cc1)N1CCCC1` [Example 318, 5-Chloro-N-((1-(4-(imino(pyrrolidin-1-yl)methyl)phenyl)-1H-1,2,3-triazol-4-yl)methyl)thiophene-2-carboxamide]: the IC50 is at most 100 nM.

For the compound `N=C(c1ccc(-n2cc(CNC(=O)c3ccc(Cl)s3)nn2)cc1)N1CCCCC1` [Example 319, 5-Chloro-N-((1-(4-(imino(piperidin-1-yl)methyl)phenyl)-1H-1,2,3-triazol-4-yl)methyl)thiophene-2-carboxamide], the IC50 was at most 100 nM.

As for `CN(C)C(=N)c1ccc(-n2cc(CNC(=O)c3ccc(Cl)s3)nn2)c(F)c1` [Example 320, N-((1-(4-(N,N-Dimethylcarbamimidoyl)-2-fluorophenyl)-1H-1,2,3-triazol-4-yl)methyl)-5-chlorothiophene-2-carboxamide], the IC50 was at most 100 nM.

As to `N=C(c1ccc(-n2cc(CNC(=O)c3ccc(Cl)s3)nn2)c(F)c1)N1CCC1` [Example 321, N-((1-(4-(Azetidin-1-yl(imino)methyl)-2-fluorophenyl)-1H-1,2,3-triazol-4-yl)methyl)-5-chlorothiophene-2-carboxamide], the IC50 was at most 100 nM.

The compound `N=C(c1ccc(-n2cc(CNC(=O)c3ccc(Cl)s3)nn2)c(F)c1)N1CCCC1` [Example 322, 5-Chloro-N-((1-(2-fluoro-4-(imino(pyrrolidin-1-yl)methyl)phenyl)-1H-1,2,3-triazol-4-yl)methyl)thiophene-2-carboxamide] showed an IC50 of at most 100 nM.

As for `N=C(c1ccc(-n2cc(CNC(=O)c3ccc(Cl)s3)nn2)c(F)c1)N1CCCCC1` [Example 323, 5-Chloro-N-((1-(2-fluoro-4-(imino(piperidin-1-yl)methyl)phenyl)-1H-1,2,3-triazol-4-yl)methyl)thiophene-2-carboxamide], the IC50 was at most 100 nM.

The compound `CN1CCN=C1c1ccc(-n2cc(CNC(=O)c3ccc(Cl)s3)nn2)c(F)c1` [Example 324, 5-Chloro-N-((1-(2-fluoro-4-(1-methyl-4,5-dihydro-1H-imidazol-2-yl)phenyl)-1H-1,2,3-triazol-4-yl)methyl)thiophene-2-carboxamide] gave a 50% inhibitory concentration (IC50) of at most 100 nM.

With `CN(C)C(=N)c1ccc(-n2cc(CNC(=O)c3ccc(Cl)s3)cn2)cc1` [Example 325, N-((1-(4-(N,N-Dimethylcarbamimidoyl)phenyl)-1H-pyrazol-4-yl)methyl)-5-chlorothiophene-2-carboxamide], the IC50 is at most 100 nM.

`CN1CCN=C1c1ccc(-n2cc(CNC(=O)c3ccc(Cl)s3)cn2)cc1` [Example 326, 5-Chloro-N-((1-(4-(1-methyl-4,5-dihydro-1H-imidazol-2-yl)phenyl)-1H-pyrazol-4-yl)methyl)thiophene-2-carboxamide]: the half-maximal inhibitory concentration (IC50) is at most 100 nM.

Regarding `N=C(c1ccc(-n2cc(CNC(=O)c3ccc(Cl)s3)cn2)cc1)N1CCC1` [Example 327, N-((1-(4-(Azetidin-1-yl(imino)methyl)phenyl)-1H-pyrazol-4-yl)methyl)-5-chlorothiophene-2-carboxamide], the IC50 is at most 100 nM.

Compound `N=C(c1ccc(-n2cc(CNC(=O)c3ccc(Cl)s3)cn2)cc1)N1CCCC1` [Example 328, 5-Chloro-N-((1-(4-(imino(pyrrolidin-1-yl)methyl)phenyl)-1H-pyrazol-4-yl)methyl)thiophene-2-carboxamide] had an IC50 of at most 100 nM.

Consider `N=C(c1ccc(-n2cc(CNC(=O)c3ccc(Cl)s3)cn2)cc1)N1CCCCC1` [Example 329, 5-Chloro-N-((1-(4-(imino(piperidin-1-yl)methyl)phenyl)-1H-pyrazol-4-yl)methyl)thiophene-2-carboxamide], for which the IC50 was at most 100 nM.

In turn, `CN(C)C(=N)c1ccc(-c2cc(CNC(=O)c3ccc(Cl)s3)no2)cc1` [Example 330, N-((5-(4-(N,N-Dimethylcarbamimidoyl)phenyl)isoxazol-3-yl)methyl)-5-chlorothiophene-2-carboxamide] gave an IC50 of at most 100 nM.

For the compound `CN1CCN=C1c1ccc(-c2cc(CNC(=O)c3ccc(Cl)s3)no2)cc1` [Example 331, 5-Chloro-N-((5-(4-(1-methyl-4,5-dihydro-1H-imidazol-2-yl)phenyl)isoxazol-3-yl)methyl)thiophene-2-carboxamide], the half-maximal inhibitory concentration (IC50) is at most 100 nM.

For the compound `N=C(c1ccc(-c2cc(CNC(=O)c3ccc(Cl)s3)no2)cc1)N1CCCC1` [Example 332, 5-Chloro-N-((5-(4-(imino(pyrrolidin-1-yl)methyl)phenyl)isoxazol-3-yl)methyl)thiophene-2-carboxamide], the half-inhibitory concentration (IC50) is at most 100 nM.

`N=C(c1ccc(-c2cc(CNC(=O)c3ccc(Cl)s3)no2)cc1)N1CCCCC1` [Example 333, 5-Chloro-N-((5-(4-(imino(piperidin-1-yl)methyl)phenyl)isoxazol-3-yl)methyl)thiophene-2-carboxamide] displayed an IC50 of at most 100 nM.

In turn, `CN(C)C(=N)c1ccc(-c2noc(CNC(=O)c3ccc(Cl)s3)n2)cc1` [Example 334, N-((3-(4-(N,N-Dimethylcarbamimidoyl)phenyl)-1,2,4-oxadiazol-5-yl)methyl)-5-chlorothiophene-2-carboxamide] showed an IC50 of at most 100 nM.

Turning to `CN1CCN=C1c1ccc(-c2noc(CNC(=O)c3ccc(Cl)s3)n2)cc1` [Example 335, 5-Chloro-N-((3-(4-(1-methyl-4,5-dihydro-1H-imidazol-2-yl)phenyl)-1,2,4-oxadiazol-5-yl)methyl)thiophene-2-carboxamide], the IC50 was at most 100 nM.

Take `N=C(c1ccc(-c2noc(CNC(=O)c3ccc(Cl)s3)n2)cc1)N1CCCC1` [Example 336, 5-Chloro-N-((3-(4-(imino(pyrrolidin-1-yl)methyl)phenyl)-1,2,4-oxadiazol-5-yl)methyl)thiophene-2-carboxamide]: the 50% inhibitory concentration (IC50) was at most 100 nM.
